The text below walks through data of US20240216356A1, “TASTE MASKED COMPOSTIONS OF 2,4,6-TRIFLUORO-N-[6-(1-METHYL-PIPERIDINE-4-CARBONYL)-PYRIDIN-2-YL]-BENZAMIDE HEMISUCCINATE, AND ORALLY DISENTEGRATING TABLET COMPRISING THE SAME” (priority 2021, published 2024).

Data set [1] in a line: Solubility of lasmiditan over the pH range of the oral cavity. It is filed as physicochemical. How it is done: Lasmiditan is highly soluble (dissolves readily in the mouth) but extremely bitter in taste, and has other negative sensory attributes, that preclude conventional ODT development. […] The efficacious dose is from 25 to 200 mg depending on patient weight or other factors. […] Extreme bitterness, mouth numbing, and other negative sensory attributes are present and persist for 30 minutes.

For data set [2] the following is noted: current marketed immediate release tablets; cited from earlier work.

In brackets after ≈: the same amount, converted by molar mass.

As usually defined, the solubility is the dissolved amount per volume that the medium holds. A lower solubility goes with a poorly soluble substance.

Take `CN1CCC(C(=O)c2cccc(NC(=O)c3c(F)cc(F)cc3F)n2)CC1` [Lasmiditan, 2,4,6-trifluoro-N-[6-(1-methyl-piperidin-4-ylcarbonyl)-pyridin-2-yl]-benzamide]: the solubility in data set [1] (pH 5, aqueous buffer) worked out at 35 mg/mL (≈ 92.7 mM); in data set [1] (pH 6.8, aqueous buffer), 9.8 mg/mL (≈ 26 mM). Further, the “onset of action (time to symptom relief)” value in data set [2] is listed as “about 2 hours”.
